Source: ChEMBL document CHEMBL4004781, “Synthesis, biological evaluation, docking study and ulcerogenicity profiling of some novel quinoline-2-carboxamides as dual COXs/LOX inhibitors endowed with anti-inflammatory activity” (Eur J Med Chem, 2017)

How the values were obtained:
[1] = biological target: T1, Prostaglandin G/H synthase 1 (Ovis aries, UniProt P05979); experiment: Inhibition of ovine COX1 using arachidonic acid as substrate assessed as decrease in PGF2 production preincubated for 15 mins followed by substrate addition measured after 2 mins by enzyme immunoassay
T1 sequence (P05979 whole entry): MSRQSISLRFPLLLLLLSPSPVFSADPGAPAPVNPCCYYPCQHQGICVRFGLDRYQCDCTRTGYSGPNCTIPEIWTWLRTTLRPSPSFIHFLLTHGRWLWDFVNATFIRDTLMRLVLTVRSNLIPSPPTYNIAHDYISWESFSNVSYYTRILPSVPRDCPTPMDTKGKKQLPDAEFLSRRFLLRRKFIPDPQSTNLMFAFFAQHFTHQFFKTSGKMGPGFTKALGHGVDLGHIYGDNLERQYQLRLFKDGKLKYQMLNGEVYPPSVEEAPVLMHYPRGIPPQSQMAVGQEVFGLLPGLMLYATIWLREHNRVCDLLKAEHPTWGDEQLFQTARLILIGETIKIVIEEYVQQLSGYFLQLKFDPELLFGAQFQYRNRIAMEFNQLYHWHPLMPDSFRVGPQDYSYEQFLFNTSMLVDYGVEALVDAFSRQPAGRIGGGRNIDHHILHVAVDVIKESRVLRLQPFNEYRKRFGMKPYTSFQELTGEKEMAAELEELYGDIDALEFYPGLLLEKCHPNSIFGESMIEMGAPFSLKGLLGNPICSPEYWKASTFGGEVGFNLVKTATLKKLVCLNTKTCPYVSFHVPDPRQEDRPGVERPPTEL

[2] = biological target: T2, Prostaglandin G/H synthase 2 (Homo sapiens, UniProt P35354); experiment: Inhibition of recombinant human COX2 using arachidonic acid as substrate assessed as decrease in PGF2 production preincubated for 15 mins followed by substrate addition measured after 2 mins by enzyme immunoassay
T2 sequence (P35354 whole entry): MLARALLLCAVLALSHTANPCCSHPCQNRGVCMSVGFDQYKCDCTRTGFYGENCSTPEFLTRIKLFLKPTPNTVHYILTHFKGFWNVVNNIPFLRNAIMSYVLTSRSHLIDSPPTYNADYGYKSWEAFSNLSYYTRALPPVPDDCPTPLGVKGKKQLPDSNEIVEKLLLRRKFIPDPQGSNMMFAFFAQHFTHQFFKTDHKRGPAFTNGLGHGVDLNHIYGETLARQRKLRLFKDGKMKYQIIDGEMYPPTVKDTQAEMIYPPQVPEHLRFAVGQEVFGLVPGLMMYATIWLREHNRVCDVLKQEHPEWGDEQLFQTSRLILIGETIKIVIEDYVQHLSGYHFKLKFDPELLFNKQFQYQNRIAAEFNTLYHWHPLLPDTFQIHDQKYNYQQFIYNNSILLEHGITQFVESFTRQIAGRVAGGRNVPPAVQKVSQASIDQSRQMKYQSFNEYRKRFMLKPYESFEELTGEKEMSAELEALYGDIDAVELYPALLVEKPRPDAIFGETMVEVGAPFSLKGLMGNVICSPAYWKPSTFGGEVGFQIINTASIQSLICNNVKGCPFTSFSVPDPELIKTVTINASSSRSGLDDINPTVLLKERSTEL

[3] = Selectivity ratio of IC50 for ovine COX1 to IC50 for recombinant human COX2
[4] = Inhibition of soybean 15-LOX assessed as decrease in leukotriene formation by enzyme immunoassay; set-up: species or system Glycine max
[5] = tested on: Rattus norvegicus; experiment: Antiinflammatory activity in albino rat assessed as inhibition of carrageenan-induced paw edema at 28 umol/kg, ip administered 1 hr post carrageenan challenge measured at 1 hr post compound dosing relative to control; type: functional
[6] = tested on: Rattus norvegicus; experiment: Antiinflammatory activity in albino rat assessed as inhibition of carrageenan-induced paw edema at 28 umol/kg, ip administered 1 hr post carrageenan challenge measured at 3 hrs post compound dosing relative to control; type: functional
[7] = tested on: Rattus norvegicus; experiment: Antiinflammatory activity in albino rat assessed as inhibition of carrageenan-induced paw edema at 28 umol/kg, ip administered 1 hr post carrageenan challenge measured at 5 hrs post compound dosing relative to control; type: functional
[8] = tested on: Rattus norvegicus; experiment: Ulcerogenic effect in albino rat assessed as ulcer index at 50 umol/kg, po qd administered for 3 days measured 1 hr post last dose; type: toxicity, organism-based; conditions: in vivo
[9] = tested on: Rattus norvegicus; experiment: Ulcerogenic effect in albino rat assessed as maceration of gastric mucosa at 50 umol/kg, po qd administered for 3 days measured 1 hr post last dose by hematoxylin/eosin staining-based light microscopic method; type: toxicity, organism-based; conditions: in vivo
[10] = tested on: Rattus norvegicus; experiment: Ulcerogenic effect in albino rat assessed as congestion of blood vessels at 50 umol/kg, po qd administered for 3 days measured 1 hr post last dose by hematoxylin/eosin staining-based light microscopic method; type: toxicity, organism-based; conditions: in vivo
[11] = tested on: Rattus norvegicus; experiment: Ulcerogenic effect in albino rat assessed as lymphocytic infiltration at 50 umol/kg, po qd administered for 3 days measured 1 hr post last dose by hematoxylin/eosin staining-based light microscopic method; type: toxicity, organism-based; conditions: in vivo
[12] = tested on: Rattus norvegicus; experiment: Ulcerogenic effect in albino rat assessed as submucosal edema at 50 umol/kg, po qd administered for 3 days measured 1 hr post last dose by hematoxylin/eosin staining-based light microscopic method; type: toxicity, organism-based; conditions: in vivo
[13] = tested on: Rattus norvegicus; experiment: Ulcerogenic effect in albino rat assessed as exfoliation of superficial epithelial cells at 50 umol/kg, po qd administered for 3 days measured 1 hr post last dose by hematoxylin/eosin staining-based light microscopic method; type: toxicity, organism-based; conditions: in vivo
[14] = tested on: Rattus norvegicus; experiment: Ulcerogenic effect in albino rat assessed as induction of necrosis in gastric mucosal cells at 50 umol/kg, po qd administered for 3 days measured 1 hr post last dose by hematoxylin/eosin staining-based light microscopic method; type: toxicity, organism-based; conditions: in vivo
[15] = tested on: Rattus norvegicus; experiment: Ulcerogenic effect in albino rat assessed as complete shedding of surface mucous cells leaving underlying gastric pit walls and openings with honeycomb shape at 50 umol/kg, po qd administered for 3 days measured 1 hr post last dose by scanning electron microscopic method; type: toxicity, organism-based; conditions: in vivo
[16] = tested on: Rattus norvegicus; experiment: Ulcerogenic effect in albino rat assessed as effect on architecture of gastric mucosa at 50 umol/kg, po qd administered for 3 days measured 1 hr post last dose by hematoxylin/eosin staining-based light microscopic method; type: toxicity, organism-based; conditions: in vivo
[17] = tested on: Rattus norvegicus; experiment: Ulcerogenic effect in albino rat assessed as effect on architecture of gastric mucosal surface at 50 umol/kg, po qd administered for 3 days measured 1 hr post last dose by scanning electron microscopic method; type: toxicity, organism-based; conditions: in vivo
[18] = tested on: Rattus norvegicus; experiment: Ulcerogenic effect in albino rat assessed as loss of demarcation between surface mucus cells at 50 umol/kg, po qd administered for 3 days measured 1 hr post last dose by scanning electron microscopic method; type: toxicity, organism-based; conditions: in vivo
[19] = Inhibition of soybean 15-LOX; set-up: species or system Glycine max

IC50 [1]	IC50 [2]	IC50 [4]	SMILES	Ratio IC50 [3]	inhibition in vivo at 28 µmol/kg [5]	inhibition in vivo at 28 µmol/kg [6]	inhibition in vivo at 28 µmol/kg [7]	other results
10.4 µM	2.11 µM	7.32 µM	Cc1c(C(=O)NCCc2ccc(N3CCCCC3)cc2)nc2ccc(Cl)cc2c1O	4.92	39.8%	46.9%	48.2%	–
–	–	–	COc1ccc2c(c1)c(CC(=O)O)c(C)n2C(=O)c1ccc(Cl)cc1 [INDOMETHACIN]	–	–	–	–	UI [8]: 17.23; Activity [9]: Toxic; Activity [10]: Toxic; Activity [11]: Toxic; Activity [12]: Toxic; Activity [13]: Toxic; Activity [14]: Toxic; Activity [15]: Toxic
7.9 µM	1.21 µM	6.18 µM	Cc1c(C(=O)NCc2nc3ccccc3[nH]2)nc2ccc(Cl)cc2c1O	6.52	45.2%	50.1%	59.4%	UI [8]: 2.66; Activity [10]: Toxic; Activity [16]: Non-Toxic; Activity [17]: Non-Toxic; Activity [18]: Toxic
9.6 µM	1.91 µM	7.14 µM	CCOC(=O)C(Cc1ccccc1)NC(=O)c1nc2ccc(Cl)cc2c(O)c1C (stereo unspecified)	5.02	40.5%	47.3%	49%	–
–	–	–	CC(C)(C)Nc1c(-c2cc3ccccc3nc2Cl)nc2sccn12	–	–	–	–	IC50 [19]: 11.5 µM
11.4 µM	2.54 µM	9.87 µM	Cc1c(C(=O)NCCc2ccccc2)nc2ccc(Cl)cc2c1O	4.48	35.8%	40.9%	43.4%	–
10.7 µM	2.81 µM	8.43 µM	Cc1c(C(=O)N2CCNCC2)nc2ccc(Cl)cc2c1O	3.8	31.1%	37.5%	38%	–
8.3 µM	1.74 µM	–	Cc1c(C(=O)N(C)c2ccccc2)nc2ccc(Cl)cc2c1O	4.77	38.9%	45.6%	47%	–
–	–	–	Cc1ccc(-c2cc(C(F)(F)F)nn2-c2ccc(S(N)(=O)=O)cc2)cc1 [CELECOXIB]	–	57.1%	68.4%	71.2%	–
12.4 µM	3.14 µM	10.4 µM	Cc1c(C(=O)N2CCCCC2)nc2ccc(Cl)cc2c1O	3.94	30.1%	35.4%	36.8%	–
11.4 µM	2.78 µM	–	Cc1c(C(=O)NC(CO)Cc2ccccc2)nc2ccc(Cl)cc2c1O (stereo unspecified)	4.1	34.2%	39.5%	41.3%	–
7.8 µM	1.41 µM	6.54 µM	Cc1c(C(=O)NC2CCCCC2)nc2ccc(Cl)cc2c1O	5.53	43.5%	50.1%	52%	–
–	–	5.64 µM	Cc1ccc(Cl)c(Nc2ccccc2C(=O)O)c1Cl [MECLOFENAMATE SODIUM]	–	–	–	–	–
9.8 µM	1.91 µM	–	Cc1c(C(=O)NCCc2ccc(N3CCCC3C)cc2)nc2ccc(Cl)cc2c1O (stereo unspecified)	5.1	41%	48%	49.7%	–
13.1 µM	3.54 µM	–	Cc1c(C(=O)NC2CCCN(Cc3ccccc3)C2)nc2ccc(Cl)cc2c1O (stereo unspecified)	3.7	31.4%	35.9%	37.8%	–
7.5 µM	1.69 µM	6.74 µM	Cc1c(C(=O)NCCc2ccc(N3CCCC3)cc2)nc2ccc(Cl)cc2c1O	4.43	41%	48%	49.9%	–
8.6 µM	1.13 µM	5.91 µM	Cc1c(C(=O)N2CCN(c3ccccc3)CC2)nc2ccc(Cl)cc2c1O	7.61	49.5%	61%	65%	UI [8]: 2.5; Activity [11]: Toxic; Activity [16]: Non-Toxic; Activity [17]: Non-Toxic; Activity [18]: Toxic
8.3 µM	1.67 µM	–	Cc1c(C(=O)NCCc2ccc(N(C)C)cc2)nc2ccc(Cl)cc2c1O	4.97	39.1%	46.9%	48.6%	–
